Patent US20110236456A1, “IMPLANTABLE DEVICE FOR THE DELIVERY OF HISTRELIN AND METHODS OF USE THEREOF” (Endo Pharmaceuticals Solutions Inc., priority 2008, published 2011)

Experiments:
[1] = Release rates of histrelin from Tecophilic, Tecoflex and Carbothane polyurethane implants (Example 3); type: physicochemical; settings: for Release rate normalized to surface area of the implant: 2% SA, 50 mg API
From the text: Tables 2A-C show release rates of histrelin from three different classes of polyurethane compounds (Tecophilic®, Tecoflex® and Carbothane®). The release rates have been normalized to surface area of the implant, thereby adjusting for slight differences in the size of the various implantable devices. Histrelin is very soluble in water. Typically, a Log P value of greater than about 2.0 is considered to be not readily soluble in aqueous solution. The polyurethanes were selected to have varying affinities for water soluble active agents and varying flexibility (as indicated by the variation in flex modulus). […] Polyurethanes are available or can be prepared, for example, with a range of EWCs or flex moduli (Table 2). Tables 2A-C show normalized release rates for various active ingredients from polyurethane compounds. Tables 2D-F show the non-normalized release rates for the same active ingredients, together with implant composition.

[2] = In vitro elution of histrelin from HP-60D-20 polyurethane implant (Example 1); type: physicochemical; settings: HP-60D-20 implant, approx. 37° C.
Description: HP-60D-20 is extruded to tubes with thickness of 0.30 mm with inside diameter of 1.75 mm. The tubes are then cut into 25 mm in length. One side of the tube is sealed with heat using a heat sealer. The sealing time is less than one minute. Four pellets of histrelin acetate are loaded into the tube. Each pellet weighs approximately 13.5 mg for a total of 54 mg. Each pellet is comprised of a mixture of 98% histrelin and 2% stearic acid. The second end open of the tube is sealed with heat in the same way as for the first end. The loaded implant is then conditioned and primed. The conditioning takes place at room temperature in a 0.9% saline solution for one day. Upon completion of the conditioning, the implant undergoes priming. The priming takes place at room temperatures in a 1.8% saline solution for one day. Each implant is tested in vitro in a medium selected to mimic the pH found in the human body. The temperature of the selected medium was kept at approximately 37° C. during the testing. The release rates are shown on FIG. 4 and Table 2.

Release rate normalized to surface area of the implant ([1]; Carbothane PC-3595A, F.M.: 4,500): 0.2 μg/day/cm^2
Non-normalized release rate ([1]; Carbothane PC-3595A, F.M.: 4,500, ID 1.85 mm, wall 0.20 mm, L 25.25 mm, 1.625 cm^2): 0.4 µg/day
Release rate normalized to surface area of the implant ([1]; Tecoflex EG 100A, F.M.: 10,000): 0.3 μg/day/cm^2
Non-normalized release rate ([1]; Tecoflex EG 100A, F.M.: 10,000, ID 1.85 mm, wall 0.20 mm, L 25.56 mm, 1.645 cm^2): 0.5 µg/day
Release rate normalized to surface area of the implant ([1]; Tecophilic HP-60D-20, 15% EWC): 93 μg/day/cm^2
Non-normalized release rate ([1]; Tecophilic HP-60D-20, 15% EWC, ID 1.80 mm, wall 0.30 mm, L 24.5 mm, 1.616 cm^2): 150 µg/day
Release rate normalized to surface area of the implant ([1]; Tecophilic HP-60D-35, 24% EWC): 248 μg/day/cm^2
Non-normalized release rate ([1]; Tecophilic HP-60D-35, 24% EWC, ID 1.80 mm, wall 0.30 mm, L 24.5 mm, 1.616 cm^2): 400 µg/day
Release rate normalized to surface area of the implant ([1]; Tecophilic HP-60D-60, 31% EWC): 309 μg/day/cm^2
Non-normalized release rate ([1]; Tecophilic HP-60D-60, 31% EWC, ID 1.80 mm, wall 0.30 mm, L 24.5 mm, 1.616 cm^2): 500 µg/day
Histrelin elution rate ([2]; week 1 of elution): 451.733 µg/day
Histrelin elution rate ([2]; week 2 of elution): 582.666 µg/day
Histrelin elution rate ([2]; week 3 of elution): 395.9 µg/day
Histrelin elution rate ([2]; week 4 of elution): 310.29 µg/day
Histrelin elution rate ([2]; week 5 of elution): 264.92 µg/day
Histrelin elution rate ([2]; week 6 of elution): 247.17 µg/day
Histrelin elution rate ([2]; week 7 of elution): 215.93 µg/day
Histrelin elution rate ([2]; week 8 of elution): 201.78 µg/day
Histrelin elution rate ([2]; week 9 of elution): 183.22 µg/day
Histrelin elution rate ([2]; week 10 of elution): 174.99 µg/day
Histrelin elution rate ([2]; week 11 of elution): 167.72 µg/day
Histrelin elution rate ([2]; week 12 of elution): 158.37 µg/day
Histrelin elution rate ([2]; week 13 of elution): 153.95 µg/day
Histrelin elution rate ([2]; week 14 of elution): 146.46 µg/day
Histrelin elution rate ([2]; week 15 of elution): 139.83 µg/day
Histrelin elution rate ([2]; week 16 of elution): 129.6 µg/day
Histrelin elution rate ([2]; week 17 of elution): 124.46 µg/day
Histrelin elution rate ([2]; week 18 of elution): 118.12 µg/day
Histrelin elution rate ([2]; week 19 of elution): 120.35 µg/day
Structure (SMILES): CCNC(=O)[C@@H]1CCCN1C(=O)[C@H](CCCNC(=N)N)NC(=O)[C@H](CC(C)C)NC(=O)[C@@H](Cc1cn(Cc2ccccc2)cn1)NC(=O)[C@H](Cc1ccc(O)cc1)NC(=O)[C@H](CO)NC(=O)[C@H](Cc1c[nH]c2ccccc12)NC(=O)[C@H](Cc1cnc[nH]1)NC(=O)[C@@H]1CCC(=O)N1 [Histrelin Acetate, Histrelin acetate]
